The subject of the assay is L1210 leukemia ip in BDF1 mice, survival T/C. Description: NCI In Vivo Anticancer Drug Screen. Data for tumor model L1210 Leukemia (intraperitoneal) in B6D2F1 (BDF1) mice. The conditions noted are these: endpoint: mean survival time, higher = longer survival. In short, it runs like this:
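Antitumor effect is assessed in tumor-bearing animals. Survival in the compound arm is compared with a vehicle-dosed control arm and expressed as their quotient.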

The mark [1] stands for this setting: dose: 50.0 mg/kg/injection, schedule: Q01DX009 (ip), vehicle: Klucel (hydroxypropylcellulose) (HPC).
Setting [2] is: dose: 100.0 mg/kg/injection, schedule: Q01DX009 (ip), vehicle: Klucel (hydroxypropylcellulose) (HPC).
Setting [3] is: dose: 200.0 mg/kg/injection, schedule: Q01DX009 (ip), vehicle: Klucel (hydroxypropylcellulose) (HPC).
The mark [4] stands for this setting: dose: 400.0 mg/kg/injection, schedule: Q01DX009 (ip), vehicle: Klucel (hydroxypropylcellulose) (HPC).
Setting [5] is: dose: 100.0 mg/kg/injection, schedule: Q01DX001 (ip), vehicle: Klucel (hydroxypropylcellulose) (HPC).
The mark [6] stands for this setting: dose: 100.0 mg/kg/injection, schedule: Q04DX003 (ip), vehicle: Klucel (hydroxypropylcellulose) (HPC).
Where [7] appears, read: dose: 200.0 mg/kg/injection, schedule: Q04DX003 (ip), vehicle: Klucel (hydroxypropylcellulose) (HPC).
Where [8] appears, read: dose: 400.0 mg/kg/injection, schedule: Q04DX003 (ip), vehicle: Klucel (hydroxypropylcellulose) (HPC).
[9] abbreviates: dose: 50.0 mg/kg/injection, schedule: Q04DX003 (ip), vehicle: Klucel (hydroxypropylcellulose) (HPC).
Setting [10] is: dose: 12.5 mg/kg/injection, schedule: Q01DX009 (ip), vehicle: Klucel (hydroxypropylcellulose) (HPC).
Where [11] appears, read: dose: 25.0 mg/kg/injection, schedule: Q01DX009 (ip), vehicle: Klucel (hydroxypropylcellulose) (HPC).
Where [12] appears, read: dose: 100.0 mg/kg/injection, schedule: Q01DX001 (ip), vehicle: saline.
Setting [13] is: dose: 200.0 mg/kg/injection, schedule: Q01DX001 (ip), vehicle: saline.

“And” between values parts separate entries of the source, which are not always exact repeats. Identical values can stand only once. Toxic doses and inconclusive results are not listed. Square brackets hold non-standard residues; d marks the D form. Peptide text beside a SMILES is read from it. * marks the point of attachment. ξ: configuration not given here. Cbz = O=C(OCc1ccccc1)*; ξD = NC(CC(=O)O)C(=O)O

For the compound `O=NN(CCCl)C(=O)N[C@H]1CCCC[C@H]1Cl`, the T/C is 108 % of control (dose: 12.0 mg/kg/injection, schedule: Q01DX001 (ip), vehicle: carboxymethylcellulose (CMC)); 175 % of control (dose: 16.0 mg/kg/injection, schedule: Q01DX001 (ip), vehicle: carboxymethylcellulose (CMC)); 180 % of control (dose: 31.0 mg/kg/injection, schedule: Q01DX001 (ip), vehicle: carboxymethylcellulose (CMC)); 177 % of control (dose: 36.0 mg/kg/injection, schedule: Q01DX001 (ip), vehicle: carboxymethylcellulose (CMC)); 168 % of control (dose: 40.0 mg/kg/injection, schedule: Q01DX001 (ip), vehicle: carboxymethylcellulose (CMC)); 289 % of control (dose: 54.0 mg/kg/injection, schedule: Q01DX001 (ip), vehicle: carboxymethylcellulose (CMC)). The T/C runs as follows: (dose: 62.0 mg/kg/injection, schedule: Q01DX001 (ip), vehicle: carboxymethylcellulose (CMC)) 218 % of control and 304 % of control; (dose: 72.0 mg/kg/injection, schedule: Q01DX001 (ip), vehicle: carboxymethylcellulose (CMC)) 289 % of control; (dose: 90.0 mg/kg/injection, schedule: Q01DX001 (ip), vehicle: carboxymethylcellulose (CMC)) 295 % of control; (dose: 93.0 mg/kg/injection, schedule: Q01DX001 (ip), vehicle: carboxymethylcellulose (CMC)) 177 % of control; (dose: 108.0 mg/kg/injection, schedule: Q01DX001 (ip), vehicle: carboxymethylcellulose (CMC)) 307 % of control; (dose: 125.0 mg/kg/injection, schedule: Q01DX001 (ip), vehicle: carboxymethylcellulose (CMC)) 175 % of control. The T/C is 306 % of control (dose: 135.0 mg/kg/injection, schedule: Q01DX001 (ip), vehicle: carboxymethylcellulose (CMC)); 107 % of control (dose: 187.0 mg/kg/injection, schedule: Q01DX001 (ip), vehicle: carboxymethylcellulose (CMC)); 242 % of control (dose: 207.0 mg/kg/injection, schedule: Q01DX001 (ip), vehicle: carboxymethylcellulose (CMC)).
For `O=C(Nc1ccc(Br)cc1)Oc1ccc(-c2ccccc2)cc1`, the T/C under setting [1] was 95 % of control; the T/C under setting [2] is 95 % of control and 91 % of control; the T/C under setting [3] was 90 % of control; the T/C under setting [4] was 86 % of control and 87 % of control.
Turning to `O=C1OCCN1C(=O)c1ccc([N+](=O)[O-])cc1`, the T/C runs as follows: under setting [5], 97 % of control; under setting [2], 89 % of control; under setting [6], 97 % of control; (dose: 200.0 mg/kg/injection, schedule: Q01DX001 (ip), vehicle: Klucel (hydroxypropylcellulose) (HPC)) 94 % of control; under setting [3], 94 % of control; under setting [7], 98 % of control. The T/C is, setting by setting: (dose: 400.0 mg/kg/injection, schedule: Q01DX001 (ip), vehicle: Klucel (hydroxypropylcellulose) (HPC)) 97 % of control; under setting [4], 88 % of control; under setting [8], 98 % of control.
For the compound `O=C(O)CC(NC(=O)CNC(=O)OCc1ccccc1)C(=O)O` (stereo not drawn) (Cbz-Gly-[ξD]-OH), the T/C by setting is: under setting [1], 93 % of control; under setting [9], 94 % of control; under setting [2], 93 % of control; under setting [6], 98 % of control; under setting [3], 95 % of control; under setting [7], 94 % of control.
Take `O=[N+]([O-])c1cc(C(F)(F)F)cc([N+](=O)[O-])c1N/N=C/c1ccccc1Cl`: the T/C is, setting by setting: (dose: 100.0 mg/kg/injection, schedule: Q01DX009 (ip), vehicle: saline with Tween-80) 91 % of control; (dose: 200.0 mg/kg/injection, schedule: Q01DX009 (ip), vehicle: saline with Tween-80) 95 % of control; (dose: 400.0 mg/kg/injection, schedule: Q01DX009 (ip), vehicle: saline with Tween-80) 90 % of control.
In the case of `COC(=N)c1ccc(O)cc1`, the T/C reads like this: (dose: 100.0 mg/kg/injection, schedule: Q04DX002 (ip), vehicle: saline with Tween-80) 94 % of control; (dose: 200.0 mg/kg/injection, schedule: Q04DX002 (ip), vehicle: saline with Tween-80) 98 % of control.
For `CCCCCCC[CH2][Sn](=[O])[CH2]CCCCCCC`, the T/C is 95 % of control (dose: 3.12 mg/kg/injection, schedule: Q01DX009 (ip), vehicle: saline with Tween-80); 100 % of control (dose: 6.25 mg/kg/injection, schedule: Q01DX009 (ip), vehicle: saline with Tween-80); 102 % of control (dose: 100.0 mg/kg/injection, schedule: Q04DX003 (ip), vehicle: acetone).
For `CCCCCCCCN(C)N=Nc1ccc(Cl)cc1C(=O)O`, under “dose: 150.0 mg/kg/injection, schedule: Q01DX009 (ip), vehicle: Klucel (hydroxypropylcellulose) (HPC)”, the T/C was 117 % of control.
As for `O=[N+]([O-])c1ccc(C(O)C=C(C(F)(F)F)C(F)(F)F)cc1` (centres undefined), the T/C was 100 % of control under setting [10]; 97 % of control under setting [11]; 95 % of control under setting [6]; 95 % of control under setting [7]; 97 % of control under setting [8].
Take `COc1cc2nc3cc(Nc4ccccc4)c(=O)c(C(C)=O)c-3n(CCN3CCOCC3)c2cc1OC`: the T/C was 90 % of control (dose: 100.0 mg/kg/injection, schedule: Q04DX002 (ip), vehicle: Klucel (hydroxypropylcellulose) (HPC)); 87 % of control (dose: 200.0 mg/kg/injection, schedule: Q04DX002 (ip), vehicle: Klucel (hydroxypropylcellulose) (HPC)); 107 % of control (dose: 400.0 mg/kg/injection, schedule: Q04DX002 (ip), vehicle: Klucel (hydroxypropylcellulose) (HPC)).
For `Cc1c(C(=O)NN)sc2ccccc12`, the T/C is 100 % of control (dose: 5.0 mg/kg/injection, schedule: Q01DX001 (ip), vehicle: saline); 97 % of control (dose: 10.0 mg/kg/injection, schedule: Q01DX001 (ip), vehicle: saline); 100 % of control (dose: 20.0 mg/kg/injection, schedule: Q01DX001 (ip), vehicle: saline); 97 % of control (dose: 40.0 mg/kg/injection, schedule: Q01DX001 (ip), vehicle: saline); 94 % of control (dose: 80.0 mg/kg/injection, schedule: Q01DX001 (ip), vehicle: saline).
For `ONC12CC3CC(CC(C3)C1)C2`, the T/C under setting [10] is 98 % of control, the T/C under setting [11] is 95 % of control, the T/C under setting [1] was 95 % of control and the T/C under setting [5] was 97 % of control.
Turning to `O=C1CCCCC1(O)C[N+](=O)[O-]` (centres undefined), the T/C (dose: 75.0 mg/kg/injection, schedule: Q01DX001 (ip), vehicle: carboxymethylcellulose (CMC)) was 96 % of control.
Turning to `CC(=O)OCCCCBr`, the T/C by setting is: (dose: 100.0 mg/kg/injection, schedule: Q01DX009 (ip), vehicle: saline) 100 % of control; under setting [6], 98 % of control; (dose: 200.0 mg/kg/injection, schedule: Q01DX009 (ip), vehicle: saline) 98 % of control; under setting [7], 91 % of control; (dose: 400.0 mg/kg/injection, schedule: Q01DX009 (ip), vehicle: saline) 98 % of control; under setting [8], 94 % of control.
For `CNC(=S)n1cnc(N)n1`, the T/C reads like this: (dose: 50.0 mg/kg/injection, schedule: Q01DX001 (ip), vehicle: saline) 107 % of control; under setting [12], 101 % of control; under setting [13], 107 % of control.
Take `Nc1nc(-c2cccs2)cc(C(F)(F)F)n1`: the T/C reads like this: under setting [6], 94 % of control; under setting [7], 94 % of control; under setting [8], 102 % of control.
`Cc1ccc(/C(Cc2ccccc2)=N\NC(N)=O)cc1`: the T/C reads like this: under setting [12], 92 % of control; under setting [13], 98 % of control; (dose: 400.0 mg/kg/injection, schedule: Q01DX001 (ip), vehicle: saline) 98 % of control.
Consider `COc1ccccc1OS(=O)(=O)c1ccc(C)cc1`, for which the T/C is 105 % of control under setting [9], 104 % of control under setting [6] and 105 % of control under setting [7].
